According to article PMC3025356, “Mechanism of the Ca^2+-Dependent Interaction between S100A4 and Tail Fragments of Nonmuscle Myosin Heavy Chain IIA” (Journal of Molecular Biology, 2011):
Where two headings read alike, the source gives them in different places.

Columns and labels:
[1] = cited from earlier work
Protocol: S100A4 contains two tyrosine residues (one in each of the EF-hand domains), and mutating each in turn to phenylalanine enabled us to identify the source of the signal change. […] Ca^2+ binds to the S100A4 dimer with an affinity of around 2–6 μM. […] Regarding the assignment of the sites to EF1 or EF2, the E33Q mutant appears more similar to wild-type S100A4 than the D63N mutant and has an intact EF2 site, as determined by tyrosine and Quin-2 fluorescence (Fig. 3a; ...

[2] = Isothermal titration calorimetry of Ca^2+ binding to S100A4 constructs
Protocol: Fig. 2 ITC records for Ca^2+ binding to S100A4 constructs: (a) 75 μM wild type at 30 °C; (b) 75 μM wild type at 10 °C; (c) 75 μM E33Q construct at 30 °C; (d) 300 μM D63N construct at 30 °C. For mutant constructs data at 10 °C, see Fig. S1. All preparations were dialysed against the same buffer of 20 mM NaCl, 10 mM Hepes, and 2 mM DTT (pH 7.5).
ITC data were collected using a VP-ITC microcalorimeter (MicroCal Ltd., Northampton, MA) and analysed by fitting to a single-site binding equation or a two-site binding equation using MicroCal Origin software.

- n1 (Ca^2+ per monomer) ([2]; 10 °C, 75 μM protein (D63N 300 μM), 20 mM NaCl, 10 mM Hepes, 2 mM DTT, pH 7.5): 0.95 ± 0.014 Ca^2+ per monomer
- n1 (Ca^2+ per monomer) ([2]; 30 °C, 75 μM protein (D63N 300 μM), 20 mM NaCl, 10 mM Hepes, 2 mM DTT, pH 7.5): 0.83 ± 0.2 Ca^2+ per monomer
- stoichiometry (discussion) ([2]; ITC): one Ca^2+ per S100A4 monomer
- Kd ([2]; first site, Ca^2+ binding, 30 °C, 75 μM protein (D63N 300 μM), 20 mM NaCl, 10 mM Hepes, 2 mM DTT, pH 7.5, read-out: K1d): 1700 nM
- Kd ([2]; first site, 10 °C, wild type and E33Q cooperative, read-out: K1d): 1600 ± 400 nM
- Kd ([2]; one Ca^2+ per S100A4 monomer, read-out: Kd for Ca^2+ (discussion)): 1700 nM
- Kd ([2]; read-out: Ca^2+ affinity of S100A4 dimer (discussion)): 2000 to 6000 nM
- N2 (Ca^2+ per monomer) ([2]; second site, 30 °C): 0.42 ± 0.27 Ca^2+ per monomer
- Kd ([2]; second site, 30 °C, read-out: K2d): 5700 ± 1100 nM
- stoichiometry of the higher-affinity site ([2]; summary of Table 1): 0.8–0.9 Ca^2+ per monomer
- Kd ([2]; temperatures of ≥ 30 °C, read-out: Kd of second site (discussion)): 6000 nM
Substance: S100A4: recombinant S100A4 expressed in E. coli BL21(DE3)
- Ca^2+ bound per S100A4 monomer ([1]; amplitude of tyrosine fluorescence change on addition of Ca^2+): 1.7 ± 0.18 Ca^2+ bound per S100A4 monomer
- Ca^2+ dissociation rate constant (tyrosine) [1]: 20 s^− 1
